Like-named read-outs stand apart in the source and are kept apart here.
Tests used:
JFH1(2a)-Y93H = assay: BMS-790052 treatment of infected cultures; assay type: cell-based, hepatitis C virus
Experimental: (§1) 5×10^3 naïve Huh7.5 cells were plated per well in a poly-D-lysine coated 96-well plate (Nunc, Roskilde, D K) one day before infection with different recombinant viruses. Infectious doses were chosen to aim at 400-1000 single infected cells in non-treated wells at the end of the experiment. J6/JFH1 was included with two infectious doses (high and low) to control for impact of dose variability. The infectious dose of other recombinants was in the range between. […] On day three cells were fixed and immunostained for NS3 expression as described above. In parallel, cell viability was monitored with CellTiter™ 96 AQueous One Solution Cell Proliferation Assay (Promega, Madison, Wis. USA). The number of single infected cells was determined by automated counting of individual wells as described above.
(§2) To improve HCV treatment, much attention has been drawn to development of specific small molecule HCV inhibitors, including inhibitors of NS5A. Using the NS5A genotype recombinants, we investigated sensitivity to the NS5A inhibitor most advanced in clinical trials, BMS-790052. Treatment experiments using the specific NS5A inhibitor BMS-790052 (synthesized by Acme Bioscience, Palo Alto, Calif., USA) were conducted similar to what was described for interferon-alpha.
(§3) The best described resistance mutation for this drug class, change of NS5A residue 93, induced >10-fold resistance to BMS-790052 for genotype 1 replicons. We changed this residue to histidine in the NS5A genotype 1-6 recombinants; QC69(7a) naturally had histidine. In BMS-790052 treatment experiments, H77C(1a)-Y93H, JFH1(2a)-Y93H and S52(3a)-Y93H were >1000-fold, J4(1b)-Y93H, J6(2a)-Y93H and ED43(4a)-Y93H˜100-fold, and SA13(5a)-T93H and HK6a(6a)-T93H<5-fold more resistant than the respective original recombinants (Table 21). […] The presence of L31M in the J6(2a) isolate and C92E in the S52(3a) isolate corresponded to the higher resistance of these isolates. Further, the lower sensitivity of J1(1a) compared to other 1a recombinants could be caused by the histidine found at NS5A residue 30, previously associated with resistance in patients.

ED43(4a)-Y93H = assay: BMS-790052 treatment of infected cultures; assay type: cell-based, hepatitis C virus
Experimental: as §1, §2, §3

[1] = tested on: J6/JFH1 with NS5A mutation I37V; assay: BMS-790052 treatment of infected cultures; assay type: cell-based, hepatitis C virus
[2] = tested on: J6/JFH1 with NS5A mutation L27I; assay: BMS-790052 treatment of infected cultures; assay type: cell-based, hepatitis C virus
TN(1a) NS5A recombinant = assay: BMS-790052 treatment of infected cultures; assay type: cell-based; conditions: Hepatitis C virus; genotype 1a, isolate TN NS5A recombinant; read-out: NS5A inhibitor, EC50 (nM), original
Experimental: as §1, §2

JFH1(2a) NS5A (J6/JFH1) = assay: BMS-790052 treatment of infected cultures; assay type: cell-based; conditions: Hepatitis C virus; genotype 2a, isolate JFH1 NS5A (J6/JFH1); read-out: NS5A inhibitor, EC50 (nM), original
Experimental: as §1, §2

J4(1b) NS5A recombinant = assay: BMS-790052 treatment of infected cultures; assay type: cell-based; conditions: Hepatitis C virus
Experimental: as §1, §2

[3] = tested on: SA13(5a) NS5A recombinant; assay: BMS-790052 treatment of infected cultures; assay type: cell-based; conditions: Hepatitis C virus; genotype 5a, isolate SA13 NS5A recombinant; read-out: NS5A inhibitor, EC50 (nM), original
Experimental: as §1, §2

[4] = tested on: ED43(4a) NS5A recombinant; assay: BMS-790052 treatment of infected cultures; assay type: cell-based; conditions: Hepatitis C virus, read-out: NS5A inhibitor, EC50 (nM), original
Experimental: as §1, §2

[5] = tested on: HK6a(6a) NS5A recombinant; assay: BMS-790052 treatment of infected cultures; assay type: cell-based; conditions: Hepatitis C virus; genotype 6a, isolate HK6a NS5A recombinant; read-out: NS5A inhibitor, EC50 (nM), original
Experimental: as §1, §2

[6] = tested on: QC69(7a) NS5A recombinant; assay: BMS-790052 treatment of infected cultures; assay type: cell-based; conditions: Hepatitis C virus; genotype 7a, isolate QC69 NS5A recombinant; read-out: NS5A inhibitor, EC50 (nM), original
Experimental: as §1, §2

DH6(1a) NS5A recombinant = assay: BMS-790052 treatment of infected cultures; assay type: cell-based; conditions: Hepatitis C virus; genotype 1a, isolate DH6 NS5A recombinant; read-out: NS5A inhibitor, EC50 (nM), original
Experimental: as §1, §2

S52(3a) NS5A recombinant = assay: BMS-790052 treatment of infected cultures; assay type: cell-based; conditions: Hepatitis C virus
Experimental: as §1, §2

J6(2a) NS5A recombinant = assay: BMS-790052 treatment of infected cultures; assay type: cell-based; conditions: Hepatitis C virus
Experimental: as §1, §2

[7] = tested on: HCV-1(1a) NS5A recombinant; assay: BMS-790052 treatment of infected cultures; assay type: cell-based; conditions: Hepatitis C virus; genotype 1a, isolate HCV-1 NS5A recombinant; read-out: NS5A inhibitor, EC50 (nM), original
Experimental: as §1, §2

[8] = tested on: H77C(1a) NS5A recombinant; assay: BMS-790052 treatment of infected cultures; assay type: cell-based; conditions: Hepatitis C virus; genotype 1a, isolate H77C NS5A recombinant; read-out: NS5A inhibitor, EC50 (nM), original
Experimental: as §1, §2

J1(1a) NS5A recombinant = assay: BMS-790052 treatment of infected cultures; assay type: cell-based; conditions: Hepatitis C virus
Experimental: as §1, §2

genotype 1 replicons = conditions: cited from earlier work

In the case of COC(=O)N[C@H](C(=O)N1CCC[C@H]1c1nc(-c2ccc(-c3ccc(-c4c[nH]c([C@@H]5CCCN5C(=O)[C@@H](NC(=O)OC)C(C)C)n4)cc3)cc2)c[nH]1)C(C)C [BMS-790052], the EC50 (JFH1(2a)-Y93H; Hepatitis C virus, JFH1(2a), NS5A mutation Y93H, read-out: NS5A inhibitor, EC50 (nM), putative resistance mutant) is reported as 140 nM, the “Fold resistance compared to original” value (JFH1(2a)-Y93H; JFH1(2a) Y93H vs original JFH1(2a)) is reported as 1600 fold and the “fold more resistant than the respective original recombinant” value (JFH1(2a)-Y93H; JFH1(2a)-Y93H) is reported as > 1000 fold. For the same molecule, the “Fold resistance compared to original” value (ED43(4a)-Y93H; ED43(4a) Y93H vs original ED43(4a)) was 30 fold, the “fold more resistant than the respective original recombinant” value (ED43(4a)-Y93H; ED43(4a)-Y93H) was ~100 fold and the EC50 (ED43(4a)-Y93H; Hepatitis C virus, read-out: NS5A inhibitor, EC50 (nM), putative resistance mutant) was 0.53 nM. For the same molecule, the EC50 ([1]; Hepatitis C virus, JFH1(2a), NS5A mutation I37V, single experiment of three replicates, read-out: NS5A inhibitor, EC50 (nM), putative resistance mutant) was 0.17 nM, the “Fold resistance compared to original” value ([1]; JFH1(2a) I37V vs original JFH1(2a)) was 2.0 fold and the EC50 ([2]; Hepatitis C virus, JFH1(2a), NS5A mutation L27I, single experiment of three replicates, read-out: NS5A inhibitor, EC50 (nM), putative resistance mutant) was 0.14 nM. The “Fold resistance compared to original” value ([2]; JFH1(2a) L27I vs original JFH1(2a)) was 1.6 fold, the EC50 (TN(1a) NS5A recombinant) was 0.038 nM and the EC50 (JFH1(2a) NS5A (J6/JFH1)) was 0.097 nM. For the same molecule, the EC50 (J4(1b) NS5A recombinant; J4(1b), most sensitive, read-out: EC50) was 0.009 nM, the EC50 (J4(1b) NS5A recombinant; genotype 1b, isolate J4 NS5A recombinant, read-out: NS5A inhibitor, EC50 (nM), original) was 0.009 nM and the EC50 [3] was 0.034 nM. The EC50 [4] was 0.017 nM, the EC50 [5] was 0.031 nM and the EC50 [6] was 0.05 nM. The EC50 (DH6(1a) NS5A recombinant) was 0.065 nM, the EC50 (S52(3a) NS5A recombinant; S52(3a), read-out: EC50) was 0.9 nM and the EC50 (S52(3a) NS5A recombinant; genotype 3a, isolate S52 NS5A recombinant, read-out: NS5A inhibitor, EC50 (nM), original) was 0.9 nM. The EC50 (J6(2a) NS5A recombinant; J6(2a), read-out: EC50) was 14 nM, the EC50 (J6(2a) NS5A recombinant; genotype 2a, isolate J6 NS5A recombinant, read-out: NS5A inhibitor, EC50 (nM), original) was 14 nM and the EC50 [7] was 0.12 nM. For the same molecule, the EC50 [8] was 0.026 nM, the EC50 (J1(1a) NS5A recombinant; J1(1a), read-out: EC50) was 1.1 nM and the EC50 (J1(1a) NS5A recombinant; genotype 1a, isolate J1 NS5A recombinant, read-out: NS5A inhibitor, EC50 (nM), original) was 1.1 nM. The “fold resistance induced by change of NS5A residue 93” value (genotype 1 replicons) was > 10 fold.
